Laboratory results taken from US9580426B2, “Compounds that expand hematopoietic stem cells” (Novartis AG, priority 2008, dated 2017).

Tested on: Primary adult CD34+ human hematopoietic stem cells (HSCs)
Experiment: % CD34+ assay: HSC expansion screen, dose response
Format: cell-based
Settings: Homo sapiens, Hematopoietic stem cell; dose response 1 nM to 10 μM; total number and/or percent of CD34+ cells
Protocol: Primary adult CD34^+ human hematopoietic stem cells (HSCs) are cultured and screened to identify compounds of the invention that facilitate HSC expansion. The cells are analyzed for the presence of the desired phenotype (CD34 expression). Compounds of the invention promote HSC expansion in a dose dependent manner.
Culture Medium: StemSpan SFEM medium is serum-free medium (StemCell Technologies, Vancouver, BC) supplemented with the following human recombinant cytokines: thrombopoietin, interleukin-6, Flt-3 ligand, and stem cell factor (all from R&D Systems, Minneapolis, Minn.), each at a final concentration of 50 ng/mL, with vehicle (DMSO) or a compound of the invention.
Human Cell Culture: Fresh human leukophoresed G-CSF mobilized peripheral blood from normal donors, CD34^+ cells from adult bone marrow and cryopreserved human cord blood CD34^+ cells are purchased from AllCells (Berkeley, Calif.). Human CD34^+ cells are enriched from leukophoresed G-CSF mobilized peripheral blood using magnetic cell sorting (MACS, Direct CD34 Progenitor Cell Isolation Kit, Miltenyi Biotec, Bergisch Gladbach, Germany) and cryopreserved. CD34^+ cell purity, checked by flow Cytometry, is higher than 90%. After thawing, the cell viability tested by trypan blue exclusion is higher than 70%. The thawed cells are centrifuged and resuspended with StemSpan medium before being aliquoted for immediate culture. Cells are plated at 10^4 cells/mL in a 384 well plate (Greiner Bio-One, Monroe, N.C.) with 50 μL of medium per well for 7 days. Every 7 days the cells are transferred to larger well plates and fresh medium is added to keep the cell density between 10^4 and 5×10^5 cells/mL. Cells were cultured at 37° C. in 5% CO2. For transplantation, cells were cultured in 75 cm^2 flasks before the cells were transplanted into mice. At a concentration of 1 micromolar, 4-(2-(2-(benzo[b]thiophen-3-yl)-9-isopropyl-9H-purin-6-ylamino)ethyl)phenol (compound 1, table 1; example 1), 4-(2-(2-(benzo[b]thiophen-3-yl)-9-sec-butyl-9H-purin-6-ylamino)ethyl)phenol (compound 2, table 1), and N-(2-(1H-indol-3-yl)ethyl)-2-(benzo[b]thiophen-3-yl)-9-isopropyl-9H-purin-6-amine (compound 9, table 1) each gives rise to a greater than 10-fold increase in the number of CD34^+ CD45RA^− cells derived from 1000 mPB CD34^+ HSCs after 21 days compared to vehicle. Compounds of the invention were assayed in a dose response format (1 nM to 10 μM) to determine the effective concentration that produced the desired effect in 50% of the cells (EC50).

Compound | EC50 [nM]
CCC(C)n1cnc2c(NCCc3c[nH]c4ccccc34)nc(-c3cncc(C#N)c3)nc21 (stereo not shown) [Example 130] | 1
Oc1ccc(CCNc2nc(-c3cncc(F)c3)nc3c2ncn3C2COC2)cc1 [Example 127] | 470
CC(C)n1cnc2c(NCCc3ccsc3)nc(-c3csc4ccccc34)nc21 [Example 10] | 1380
Cc1n[nH]c(SCCNc2nc(-c3cccnc3)nc3c2ncn3C(C)C)n1 [Example 76] | 6000
CC(C)n1cnc2c(NCCc3ccc(O)cc3)nc(-c3cnccn3)nc21 [Example 43] | 2400
CC(C)n1cnc2c(NCCc3ccc(O)cc3)nc(-c3cccn3C)nc21 [Example 119] | 1400
Cc1ccc(-c2nc(NCCc3ccc(O)cc3)c3ncn(C(C)C)c3n2)cn1 [Example 144] | 160
CC(C)n1cnc2c(NCCNc3ccccn3)nc(-c3csc4ccccc34)nc21 [Example 83] | 7100
CC[C@@H](C)n1cnc2c(NCCc3c[nH]c4ccccc34)nc(-c3cncc(F)c3)nc21 [Example 132R] | 1
CC(C)n1cnc2c(NCCc3ccc(N)cc3)nc(-c3csc4ccccc34)nc21 [Example 13] | 5750
CC(C)n1cnc2c(NCCc3c[nH]c4ccccc34)nc(-c3cccnc3)nc21 [Example 91] | 29
CC(C)n1cnc2c(NCCc3ccc(O)cc3)nc(-c3cncc(F)c3)nc21 [Example 50] | 34
CCOC(=O)c1cncc(-c2nc(NCCc3ccc(O)cc3)c3ncn(C(C)C)c3n2)c1 [Example 32] | 5600
Cn1cnc2c(NCCc3ccc(O)cc3)nc(-c3csc4ccccc34)nc21 [Example 7] | 7200
CC(C)n1cnc2c(NCCc3c[nH]c4ccccc34)nc(-c3cncc(F)c3)nc21 [Example 170] | 6
CCN(CC)CCOc1ccc2c(CCNc3nc(-c4cncc(F)c4)nc4c3ncn4C(C)C)c[nH]c2c1 [Example 176] | 1100
Fc1cncc(-c2nc(NCCc3c[nH]c4ccccc34)c3ncn(C4COC4)c3n2)c1 [Example 186] | 7
CC(C)n1cnc2c(NCCc3ccc(O)cc3)nc(-n3cnc4ccccc43)nc21 [Example 121] | 86
CC(C)n1cnc2c(NCCNc3ccccn3)nc(-c3cccnc3)nc21 [Example 72] | 6300
Oc1ccc(CCNc2nc(-c3cccnc3)nc3c2ncn3[C@@H]2CCOC2)cc1 [Example 93R] | 520

Compound | EC50 [nM]
CC(C)n1cnc2c(NCCc3c[nH]c4c(F)cccc34)nc(-c3cncc(F)c3)nc21 [Example 196] | 2
CC(C)n1cnc2c(NCCc3cnc4[nH]ccc4c3)nc(-c3cccnc3)nc21 [Example 199] | 1600
CCC(C)n1cnc2c(NCCc3c[nH]c4ccccc34)nc(-c3cncc(F)c3)nc21 (stereo not shown) [Example 132] | 3
Oc1ccc(CCNc2nc(-c3cccnc3)nc3c2ncn3[C@H]2CCOC2)cc1 [Example 93S] | 1100
COc1cncc(-c2nc(NCCc3ccc(O)cc3)c3ncn(C(C)C)c3n2)c1 [Example 33] | 270
CC(C)n1cnc2c(NCCc3ccc(O)cc3)nc(-c3ccncc3)nc21 [Example 31] | 660
CC(C)n1cnc2c(NCCc3cccnc3)nc(-c3cncc(F)c3)nc21 [Example 166] | 7500
CC(C)n1cnc2c(NCCc3cccc(O)c3)nc(-c3csc4ccccc34)nc21 [Example 11] | 1450
Cc1n[nH]c(C)c1CCCNc1nc(-c2csc3ccccc23)nc2c1ncn2C(C)C [Example 88] | 2600
Cc1cncc(-c2nc(NCCc3c[nH]c4ccccc34)c3ncn(C(C)C)c3n2)c1 [Example 183] | 10
Oc1ccc(CCNc2nc(-c3cccnc3)nc3c2ncn3C2COC2)cc1 [Example 94] | 970
CC(C)n1cnc2c(NCCc3ccc(O)c(Cl)c3)nc(-c3cccnc3)nc21 [Example 146] | 240
CC(C)n1cnc2c(NCCc3ccc(O)cc3F)nc(-c3cccnc3)nc21 [Example 147] | 92
CC(C)n1cnc2c(NCCc3ccc(O)cc3)nc(-c3ccoc3)nc21 [Example 18] | 3900
CC(C)n1cnc2c(N(C)CCc3ccc(O)cc3)nc(-c3cccnc3)nc21 [Example 99] | 7500
Cc1cc(CCNc2nc(-c3cccnc3)nc3c2ncn3C(C)C)ccc1O [Example 150] | 57
Oc1ccc(CCNc2nc(-c3csc4ccccc34)nc3c2ncn3C2CCCOC2)cc1 (stereo not shown) [Example 4] | 1490
Oc1ccc(CCNc2nc(-c3csc4ccccc34)nc3c2ncn3[C@H]2CCOC2)cc1 [Example 152] | 350
CC(C)n1cnc2c(NCCc3ccc(O)cc3)nc(-c3cccs3)nc21 [Example 55] | 1300
Cc1cscc1-c1nc(NCCc2ccc(O)cc2)c2ncn(C(C)C)c2n1 [Example 58] | 240

Compound | EC50 [nM]
CC(C)n1cnc2c(NCCc3ccc(O)cc3)nc(-c3cnccc3C#N)nc21 [Example 140] | 91
CCC(C)n1cnc2c(NCCc3ccc(O)cc3)nc(-c3csc4ccccc34)nc21 (stereo not shown) [Example 2, 4-(2-(2-(benzo[b]thiophen-3-yl)-9-sec-butyl-9H-purin-6-ylamino)ethyl)phenol] | 30
Cc1ccncc1-c1nc(NCCc2ccc(O)cc2)c2ncn(C(C)C)c2n1 [Example 35] | 340
CCCCCCCC(C)n1cnc2c(NCCc3ccc(O)cc3)nc(-c3csc4ccccc34)nc21 (stereo not shown) [Example 21] | 130
CC(C)n1cnc2c(NCCc3c[nH]c4ccc(Cl)cc34)nc(-c3cccnc3)nc21 [Example 148] | 750
CC(C)n1cnc2c(NCCc3ccc(O)cc3)nc(-c3ccccn3)nc21 [Example 44] | 1700
CC(C)n1cnc2c(NCCc3ccc(NS(C)(=O)=O)cc3)nc(-c3cccnc3)nc21 [Example 92] | 7100
CC(C)n1cnc2c(NCCc3c[nH]c4ccc(F)cc34)nc(-c3cccnc3)nc21 [Example 149] | 520
Cc1cccc2c(CCNc3nc(-c4cncc(F)c4)nc4c3ncn4C(C)C)c[nH]c12 [Example 185] | 24
CC(C)n1cnc2c(NCCc3c[nH]c4cccc(F)c34)nc(-c3cncc(F)c3)nc21 [Example 195] | 3
CC(C)Cn1cnc2c(NCCc3ccc(O)cc3)nc(-c3csc4ccccc34)nc21 [Example 6] | 2530
COc1cc(CCNc2nc(-c3cccnc3)nc3c2ncn3C(C)C)ccc1O [Example 60] | 3200
Cc1ccc2[nH]cc(CCNc3nc(-c4cccnc4)nc4c3ncn4C(C)C)c2c1 [Example 62] | 720
CC(C)n1cnc2c(NCCc3ccc(O)cc3)nc(N3CCCC3)nc21 [Example 38] | 1600
CC(C)n1cnc2c(NCCN3CCNC3=O)nc(-c3csc4ccccc34)nc21 [Example 81] | 2700
Oc1ccc(CCNc2nc(-c3csc4ccccc34)nc3c2ncn3Cc2ccc(C(F)(F)F)cc2)cc1 [Example 5] | 2080
CC(C)n1cnc2c(NCCc3ccc(O)cc3)nc(-c3cccnc3F)nc21 [Example 118] | 450
CC(C)n1cnc2c(NCCc3c[nH]c4ccc(OC(=O)CCCCCNC(=O)CCCC[C@@H]5SC[C@@H]6NC(=O)N[C@@H]65)cc34)nc(-c3csc4ccccc34)nc21 [Example 210, 3-(2-(2-(benzo[b]thiophen-3-yl)-9-isopropyl-9H-purin-6-ylamino)ethyl)-1H-indol-5-yl 6-(5-((3aS,4S,6aR)-2-oxohexahydro-1H-thieno[3,4-d]imidazol-4-yl)pentanamido)hexanoate] | 2100
